This is an account of results in US20230060820A1, “OCTENIDINE SALT ANTIMICROBIAL MEDICAL ARTICLES” (3M INNOVATIVE PROPERTIES COMPANY, priority 2019, published 2023).

The conditions of data set [1]: cited from earlier work; for Solubility: previous reports.
Data set [2] is described as follows: Solubilization of octenidine hydrochloride in solvents (homogeneous solution). In kind it is physicochemical. The note with it: for Homogeneous solution: 10% (w/w), room temperature 20-25° C. As for the experimental part: Previous reports have shown that octenidine hydrochloride is soluble in both propylene glycol and ethylhexylglycerine, both of which are diol solvents. Hydrogen-bonding solvents with different functionalities were tested for their ability to solvate octenidine hydrochloride. Each solvent was combined with octenidine hydrochloride at 10% (w/w) with mixing at room temperature, i.e., 20-25° C. In some cases, sonication and/or heat were added to hasten dissolution.

The conditions of data set [3]: higher than chlorhexidine; cited from earlier work.

Structures can show the parent of a compound that is named as a salt. Where two headings read alike, the source gives them in different places.

Turning to `N=C(NCCCCCCNC(=N)NC(=N)Nc1ccc(Cl)cc1)NC(=N)Nc1ccc(Cl)cc1.O=C(O)[C@H](O)[C@@H](O)[C@H](O)[C@H](O)CO.O=C(O)[C@H](O)[C@@H](O)[C@H](O)[C@H](O)CO` [chlorhexidine gluconate, Chlorhexidine digluconate], in data set [1] (in glycol fatty monoesters, known), the Homogenous solution formation result is “do not form homogenous solutions”.
Consider `CCCCCCCCN=c1ccn(CCCCCCCCCCn2ccc(=NCCCCCCCC)cc2)cc1` [octenidine hydrochloride, Octenidine hydrochloride], for which the Homogeneous solution entry is on record as “No” in data set [2] (in 2-octyldodecanol); “Yes” in data set [2] (in glycerol monocaprylate); “Yes” in data set [2] (in glycerol monoisostearate); “Yes” in data set [2] (in lauramide diethanolamine); “Yes” in data set [2] (in methoxyisopropanol); “No” in data set [2] (in propylene glycol dicaprylate/caprate). In addition, the Homogeneous solution entry in data set [2] (in propylene glycol monoheptanoate), in data set [2] (in propylene glycol monolaurate) and in data set [2] (in propylene glycol) was “Yes” throughout. Also, the Solubility result in data set [2] (in glycol fatty monoesters) is “soluble”; in data set [2] (in the glycol fatty diester), “insoluble”; in data set [2] (in the monohydric alcohol), “insoluble”; in data set [1] (in ethylhexylglycerine) it was “soluble”; in data set [1] (in propylene glycol) it was “soluble”. Moreover, in data set [3], the “Antimicrobial efficacy relative to chlorhexidine” value is on record as 3-10 times.
